# ChEMBL document CHEMBL1201861, “Genomics of Drug Sensitity in Cancer screening data, Wellcome Trust Sanger Institute”
# Columns and labels:
# Test in all cases: cells
# Ca-Ski = format: functional, cell-based; details: Homo sapiens;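 also: cell viability assay measuring inhibition of Ca-Ski cell growth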
# Description: SANGER: Inhibition of human Ca-Ski cell growth in a cell viability assay.
# DOK = format: functional, cell-based; details: Homo sapiens;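 also: cell viability assay read-out, values reflect inhibition of cell growth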
# Description: SANGER: Inhibition of human DOK cell growth in a cell viability assay.
# DU-145 = format: functional, cell-based; details: Homo sapiens
# Description: SANGER: Inhibition of human DU-145 cell growth in a cell viability assay.
# EC-GI-10 = format: functional, cell-based, Homo sapiens; details: Homo sapiens, EC-GI-10
# Description: SANGER: Inhibition of human EC-GI-10 cell growth in a cell viability assay.
# GP5d = format: functional, cell-based; details: Homo sapiens;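 also: growth inhibition of human GP5d cells, read out with a cell viability assay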
# Description: SANGER: Inhibition of human GP5d cell growth in a cell viability assay.
# HCC1569 = format: functional, cell-based; details: Homo sapiens;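 also: growth inhibition of human HCC1569 cells, read out with a cell viability assay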
# Description: SANGER: Inhibition of human HCC1569 cell growth in a cell viability assay.
# HO-1-N-1 = format: functional, cell-based; details: Homo sapiens;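 also: growth inhibition of human HO-1-N-1 cells, read out with a cell viability assay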
# Description: SANGER: Inhibition of human HO-1-N-1 cell growth in a cell viability assay.
# HT1197 = format: functional, cell-based, HT-1197; details: Homo sapiens
# Description: SANGER: Inhibition of human HT-1197 cell growth in a cell viability assay.
# HuP-T4 = format: functional, cell-based; details: Homo sapiens;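 also: cell viability assay measuring how much HuP-T4 cell growth is inhibited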
# Description: SANGER: Inhibition of human HuP-T4 cell growth in a cell viability assay.
# IGR-1 = format: functional, cell-based; details: Homo sapiens;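 also: growth inhibition of human IGR-1 cells, read out with a cell viability assay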
# Description: SANGER: Inhibition of human IGR-1 cell growth in a cell viability assay.
# IGROV-1 = format: functional, cell-based; details: Homo sapiens;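 also: reduction of IGROV-1 cell growth, read out with a viability assay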
# Description: SANGER: Inhibition of human IGROV-1 cell growth in a cell viability assay.
# J82 = format: functional, cell-based; details: Homo sapiens;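 also: growth inhibition of J82 cells, read out with a cell viability assay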
# Description: SANGER: Inhibition of human J82 cell growth in a cell viability assay.
# KYSE-520 cell line = format: functional, cell-based; details: Homo sapiens;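 also: growth inhibition of human KYSE-520 cells, read out with a viability assay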
# Description: SANGER: Inhibition of human KYSE-520 cell growth in a cell viability assay.
# LU-99A = format: functional, cell-based; details: Homo sapiens;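 also: growth inhibition of LU-99A cells, read out with a cell viability assay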
# Description: SANGER: Inhibition of human LU-99A cell growth in a cell viability assay.
# M14 = format: functional, cell-based; details: Homo sapiens;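 also: growth inhibition of M14 cells, read out with a cell viability assay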
# Description: SANGER: Inhibition of human M14 cell growth in a cell viability assay.
# MDA-MB-231 = format: functional, cell-based; details: Homo sapiens
# Description: SANGER: Inhibition of human MDA-MB-231 cell growth in a cell viability assay.
# MEL-JUSO = format: functional, cell-based; details: Homo sapiens;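 also: growth inhibition of human MEL-JUSO cells, read out with a cell viability assay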
# Description: SANGER: Inhibition of human MEL-JUSO cell growth in a cell viability assay.
# MFE-280 = format: functional, cell-based; details: Homo sapiens;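 also: growth inhibition of MFE-280 cells, determined with a cell viability readout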
# Description: SANGER: Inhibition of human MFE-280 cell growth in a cell viability assay.
# MOLT-13 = format: functional, cell-based; details: Homo sapiens;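 also: IC50 for suppression of MOLT-13 cell growth, read out with a cell viability assay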
# Description: SANGER: Inhibition of human MOLT-13 cell growth in a cell viability assay.
# NB14 = format: functional, cell-based, Homo sapiens; details: Homo sapiens, NB14;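 also: growth inhibition of NB14 cells measured with a cell viability assay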
# Description: SANGER: Inhibition of human NB14 cell growth in a cell viability assay.
# NCI-H1573 = format: functional, cell-based; details: Homo sapiens;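 also: growth inhibition of NCI-H1573 cells, read out with a cell viability assay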
# Description: SANGER: Inhibition of human NCI-H1573 cell growth in a cell viability assay.
# NCI-H1755 = format: functional, cell-based; details: Homo sapiens;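 also: cell viability readout used to measure growth inhibition of NCI-H1755 cells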
# Description: SANGER: Inhibition of human NCI-H1755 cell growth in a cell viability assay.
# NCI-H1993 = format: functional, cell-based; details: Homo sapiens;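 also: growth inhibition of the cancer cell line, assessed with a cell viability assay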
# Description: SANGER: Inhibition of human NCI-H1993 cell growth in a cell viability assay.
# NCI-H2087 = format: functional, cell-based; details: Homo sapiens;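 also: growth inhibition determined with a cell viability readout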
# Description: SANGER: Inhibition of human NCI-H2087 cell growth in a cell viability assay.
# NCI-H2342 = format: functional, cell-based; details: Homo sapiens;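 also: growth inhibition of the cancer cell line, determined with a cell viability assay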
# Description: SANGER: Inhibition of human NCI-H2342 cell growth in a cell viability assay.
# NCI-H292 = format: functional, cell-based; details: Homo sapiens;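 also: growth inhibition of NCI-H292 cells, read out with a cell viability assay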
# Description: SANGER: Inhibition of human NCI-H292 cell growth in a cell viability assay.
# NCI-H520 = format: functional, cell-based; details: Homo sapiens;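 also: growth inhibition of NCI-H520 cells, measured by a cell viability assay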
# Description: SANGER: Inhibition of human NCI-H520 cell growth in a cell viability assay.
# OAW-28 = format: functional, cell-based; details: Homo sapiens;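 also: growth inhibition of OAW-28 cells, read out with a cell viability assay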
# Description: SANGER: Inhibition of human OAW-28 cell growth in a cell viability assay.
# OVCAR-5 = format: functional, cell-based; details: Homo sapiens;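 also: growth inhibition of human OVCAR-5 cells, read out with a cell viability assay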
# Description: SANGER: Inhibition of human OVCAR-5 cell growth in a cell viability assay.
# RPMI-2650 = format: functional, cell-based; details: Homo sapiens
# Description: SANGER: Inhibition of human RPMI-2650 cell growth in a cell viability assay.
# RVH-421 = format: functional, cell-based; details: Homo sapiens
# Description: SANGER: Inhibition of human RVH-421 cell growth in a cell viability assay.
# S-117 = format: functional, cell-based; details: Homo sapiens
# Description: SANGER: Inhibition of human S-117 cell growth in a cell viability assay.
# SBC-5 = format: functional, cell-based; details: Homo sapiens;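 also: cell viability assay read-out, IC50 is the concentration that inhibits growth of the cells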
# Description: SANGER: Inhibition of human SBC-5 cell growth in a cell viability assay.
# SK-OV-3 = format: functional, cell-based; details: Homo sapiens;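 also: growth inhibition of SK-OV-3 human cells, read out with a cell viability assay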
# Description: SANGER: Inhibition of human SK-OV-3 cell growth in a cell viability assay.
# SNU-423 = format: functional, cell-based; details: Homo sapiens
# Description: SANGER: Inhibition of human SNU-423 cell growth in a cell viability assay.
# SW1088 = format: functional, cell-based; details: Homo sapiens;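 also: growth inhibition of human SW1088 cells, read out by a cell viability assay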
# Description: SANGER: Inhibition of human SW1088 cell growth in a cell viability assay.
# SW48 = format: functional, cell-based; details: Homo sapiens;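 also: growth inhibition of SW48 cells, read out with a cell viability assay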
# Description: SANGER: Inhibition of human SW48 cell growth in a cell viability assay.
# T47D = format: functional, cell-based; details: Homo sapiens;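 also: growth inhibition of human T47D cells, measured with a cell viability assay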
# Description: SANGER: Inhibition of human T47D cell growth in a cell viability assay.
# CWR22R = format: functional, cell-based; details: Homo sapiens, 22Rv1;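 also: growth inhibition of 22Rv1 cells, read out with a cell viability assay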
# Description: SANGER: Inhibition of human 22RV1 cell growth in a cell viability assay.
# 639-V = format: functional, cell-based; details: Homo sapiens;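 also: growth inhibition of 639-V cells, read out with a cell viability assay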
# Description: SANGER: Inhibition of human 639-V cell growth in a cell viability assay.
# ASPC1 = format: functional, cell-based; details: Homo sapiens;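 also: growth inhibition of AsPC-1 cells, read out with a cell viability assay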
# Description: SANGER: Inhibition of human AsPC-1 cell growth in a cell viability assay.
# C32 = format: functional, cell-based; details: Homo sapiens;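 also: cell viability assay, with IC50 reflecting inhibition of C32 cell growth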
# Description: SANGER: Inhibition of human C32 cell growth in a cell viability assay.
# CAL-120 = format: functional, cell-based; details: Homo sapiens;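 also: cell growth inhibition, read out as cell viability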
# Description: SANGER: Inhibition of human CAL-120 cell growth in a cell viability assay.
# CAL-27 = format: functional, cell-based; details: Homo sapiens;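 also: Viability-based readout, IC50 reflecting inhibition of CAL-27 cell growth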
# Description: SANGER: Inhibition of human CAL-27 cell growth in a cell viability assay.
# CAL-62 = format: functional, cell-based; details: Homo sapiens;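 also: growth inhibition of CAL-62 cells, read out with a cell viability assay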
# Description: SANGER: Inhibition of human CAL-62 cell growth in a cell viability assay.
# UACC-62 = format: functional, cell-based; details: Homo sapiens;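 also: growth inhibition of human UACC-62 cells, read out by a cell viability assay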
# Description: SANGER: Inhibition of human UACC-62 cell growth in a cell viability assay.
# VMRC-RCZ = format: functional, cell-based; details: Homo sapiens;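 also: growth inhibition measured with a cell viability assay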
# Description: SANGER: Inhibition of human VMRC-RCZ cell growth in a cell viability assay.
# CHL-1 = format: functional, cell-based; details: Homo sapiens;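 also: cell growth inhibition, read out with a cell viability assay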
# Description: SANGER: Inhibition of human CHL-1 cell growth in a cell viability assay.
# K052 = format: functional, cell-based, Homo sapiens; details: Homo sapiens, K052;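 also: Read-out from a cell viability assay, IC50 reflecting suppression of K052 cell growth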
# Description: SANGER: Inhibition of human K052 cell growth in a cell viability assay.
# NCI-H1417 = format: functional, cell-based, Homo sapiens; details: Homo sapiens, NCI-H1417;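 also: human NCI-H1417 cells, growth inhibition determined with a cell viability readout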
# Description: SANGER: Inhibition of human NCI-H1417 cell growth in a cell viability assay.
# NCI-H2081 = format: functional, cell-based, Homo sapiens; details: Homo sapiens, NCI-H2081;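 also: growth inhibition of human NCI-H2081 cells, read out with a cell viability assay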
# Description: SANGER: Inhibition of human NCI-H2081 cell growth in a cell viability assay.
# NCI-H2196 = format: functional, cell-based, Homo sapiens; details: Homo sapiens, NCI-H2196; read-out: IC50;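 also: cell viability assay used as the readout of growth inhibition in NCI-H2196 cells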
# Description: SANGER: Inhibition of human NCI-H2196 cell growth in a cell viability assay.
# NCI-H64 = format: functional, cell-based, Homo sapiens; details: Homo sapiens, NCI-H64;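 also: growth inhibition of NCI-H64 cells, read out with a cell viability assay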
# Description: SANGER: Inhibition of human NCI-H64 cell growth in a cell viability assay.
# PF-382 = format: functional, cell-based, Homo sapiens; details: Homo sapiens, PF-382
# Description: SANGER: Inhibition of human PF-382 cell growth in a cell viability assay.
# RL95-2 = format: functional, cell-based, Homo sapiens; details: Homo sapiens, RL95-2;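 also: RL95-2 growth inhibition determined through a cell viability readout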
# Description: SANGER: Inhibition of human RL95-2 cell growth in a cell viability assay.
# SCC-3 = format: functional, cell-based, Homo sapiens; details: Homo sapiens, SCC-3;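 also: cell viability assay measuring inhibition of SCC-3 cell growth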
# Description: SANGER: Inhibition of human SCC-3 cell growth in a cell viability assay.
# SUP-T1 = format: functional, cell-based, Homo sapiens; details: Homo sapiens, SUP-T1;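 also: growth inhibition of human SUP-T1 cells, read out as cell viability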
# Description: SANGER: Inhibition of human SUP-T1 cell growth in a cell viability assay.
# BOKU = format: functional, cell-based; details: Homo sapiens;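 also: growth inhibition of the human BOKU cell line, read out by a cell viability assay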
# Description: SANGER: Inhibition of human BOKU cell growth in a cell viability assay.
# TUR = format: functional, cell-based, Homo sapiens; details: Homo sapiens, TUR;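 also: growth inhibition of human TUR cells, read out with a cell viability assay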
# Description: SANGER: Inhibition of human TUR cell growth in a cell viability assay.
# U-698-M = format: functional, cell-based, Homo sapiens; details: Homo sapiens, U-698-M
# Description: SANGER: Inhibition of human U-698-M cell growth in a cell viability assay.
structure (smiles),measurement,setting,value
NC(=O)Nc1cc(-c2cccc(F)c2)sc1C(=O)N[C@H]1CCCNC1 [AZD-7762],IC50,Ca-Ski,0.388 µM
same,IC50,DOK,> 2 µM
same,IC50,DU-145,> 2 µM
same,IC50,EC-GI-10,1.78 µM
same,IC50,GP5d,0.412 µM
same,IC50,HCC1569,> 2 µM
same,IC50,HO-1-N-1,1.14 µM
same,IC50,HT1197,> 2 µM
same,IC50,HuP-T4,0.469 µM
same,IC50,IGR-1,> 2 µM
same,IC50,IGROV-1,0.244 µM
same,IC50,J82,0.805 µM
same,IC50,KYSE-520 cell line,0.826 µM
same,IC50,LU-99A,> 2 µM
same,IC50,M14,0.145 µM
same,IC50,MDA-MB-231,1.6 µM
same,IC50,MEL-JUSO,0.131 µM
same,IC50,MFE-280,> 2 µM
same,IC50,MOLT-13,0.463 µM
same,IC50,NB14,0.0614 µM
same,IC50,NCI-H1573,1.42 µM
same,IC50,NCI-H1755,0.273 µM
same,IC50,NCI-H1993,> 2 µM
same,IC50,NCI-H2087,> 2 µM
same,IC50,NCI-H2342,> 2 µM
same,IC50,NCI-H292,0.898 µM
same,IC50,NCI-H520,1.38 µM
same,IC50,OAW-28,1.85 µM
same,IC50,OVCAR-5,0.139 µM
same,IC50,RPMI-2650,> 2 µM
same,IC50,RVH-421,1.19 µM
same,IC50,S-117,1.04 µM
same,IC50,SBC-5,0.513 µM
same,IC50,SK-OV-3,> 2 µM
same,IC50,SNU-423,0.535 µM
same,IC50,SW1088,0.916 µM
same,IC50,SW48,0.792 µM
same,IC50,T47D,> 2 µM
same,IC50,CWR22R,1.81 µM
same,IC50,639-V,1.17 µM
same,IC50,ASPC1,0.664 µM
same,IC50,C32,0.347 µM
same,IC50,CAL-120,> 2 µM
same,IC50,CAL-27,> 2 µM
same,IC50,CAL-62,0.571 µM
same,IC50,UACC-62,0.776 µM
same,IC50,VMRC-RCZ,0.906 µM
same,IC50,CHL-1,0.526 µM
O=S(=O)(O)c1ccc2cc(/N=N/c3cc(S(=O)(=O)O)c4cccnc4c3O)ccc2c1,IC50,Ca-Ski,> 16 µM
same,IC50,DOK,> 16 µM
same,IC50,DU-145,> 16 µM
same,IC50,EC-GI-10,> 16 µM
same,IC50,GP5d,> 16 µM
same,IC50,HCC1569,> 16 µM
same,IC50,HO-1-N-1,> 16 µM
same,IC50,HT1197,> 16 µM
same,IC50,HuP-T4,> 16 µM
same,IC50,IGR-1,> 16 µM
same,IC50,IGROV-1,> 16 µM
same,IC50,J82,> 16 µM
same,IC50,K052,> 16 µM
same,IC50,KYSE-520 cell line,> 16 µM
same,IC50,LU-99A,> 16 µM
same,IC50,M14,> 16 µM
same,IC50,MDA-MB-231,> 16 µM
same,IC50,MEL-JUSO,> 16 µM
same,IC50,MFE-280,> 16 µM
same,IC50,NCI-H1417,> 16 µM
same,IC50,NCI-H1755,> 16 µM
same,IC50,NCI-H1993,> 16 µM
same,IC50,NCI-H2081,> 16 µM
same,IC50,NCI-H2087,> 16 µM
same,IC50,NCI-H2196,> 16 µM
same,IC50,NCI-H2342,> 16 µM
same,IC50,NCI-H292,> 16 µM
same,IC50,NCI-H520,> 16 µM
same,IC50,NCI-H64,> 16 µM
same,IC50,OAW-28,> 16 µM
same,IC50,OVCAR-5,> 16 µM
same,IC50,PF-382,> 16 µM
same,IC50,RL95-2,> 16 µM
same,IC50,RPMI-2650,> 16 µM
same,IC50,RVH-421,> 16 µM
same,IC50,S-117,> 16 µM
same,IC50,SBC-5,> 16 µM
same,IC50,SCC-3,> 16 µM
same,IC50,SK-OV-3,> 16 µM
same,IC50,SNU-423,> 16 µM
same,IC50,SUP-T1,> 16 µM
same,IC50,SW1088,> 16 µM
same,IC50,SW48,> 16 µM
same,IC50,T47D,> 16 µM
same,IC50,CWR22R,> 16 µM
same,IC50,639-V,> 16 µM
same,IC50,ASPC1,> 16 µM
same,IC50,BOKU,> 16 µM
same,IC50,C32,> 16 µM
same,IC50,CAL-120,> 16 µM
same,IC50,CAL-27,> 16 µM
same,IC50,CAL-62,> 16 µM
same,IC50,TUR,> 16 µM
same,IC50,U-698-M,> 16 µM
same,IC50,UACC-62,> 16 µM
same,IC50,VMRC-RCZ,> 16 µM
same,IC50,CHL-1,> 16 µM
Cc1ccc(-n2nc(C(C)(C)C)cc2NC(=O)Nc2ccc(OCCN3CCOCC3)c3ccccc23)cc1 [DORAMAPIMOD],IC50,Ca-Ski,> 10 µM
same,IC50,DOK,> 10 µM
same,IC50,DU-145,3.94 µM
same,IC50,GP5d,> 10 µM
same,IC50,HCC1569,> 10 µM
same,IC50,HO-1-N-1,> 10 µM
same,IC50,HT1197,> 10 µM
same,IC50,HuP-T4,> 10 µM
same,IC50,IGR-1,> 10 µM
same,IC50,IGROV-1,> 10 µM
same,IC50,J82,> 10 µM
same,IC50,KYSE-520 cell line,> 10 µM
same,IC50,LU-99A,> 10 µM
same,IC50,M14,> 10 µM
same,IC50,MDA-MB-231,> 10 µM
same,IC50,MEL-JUSO,> 10 µM
same,IC50,MFE-280,> 10 µM
same,IC50,MOLT-13,> 10 µM
same,IC50,NB14,> 10 µM
same,IC50,NCI-H1573,> 10 µM
same,IC50,NCI-H1755,> 10 µM
same,IC50,NCI-H1993,> 10 µM
same,IC50,NCI-H2087,> 10 µM
same,IC50,NCI-H2342,> 10 µM
same,IC50,NCI-H292,> 10 µM
same,IC50,NCI-H520,> 10 µM
same,IC50,OAW-28,> 10 µM
same,IC50,OVCAR-5,> 10 µM
same,IC50,RPMI-2650,> 10 µM
same,IC50,RVH-421,> 10 µM
same,IC50,S-117,> 10 µM
same,IC50,SBC-5,> 10 µM
same,IC50,SK-OV-3,> 10 µM
same,IC50,SNU-423,> 10 µM
same,IC50,SW1088,> 10 µM
same,IC50,SW48,> 10 µM
same,IC50,T47D,> 10 µM
same,IC50,CWR22R,> 10 µM
same,IC50,639-V,> 10 µM
same,IC50,ASPC1,> 10 µM
same,IC50,C32,> 10 µM
same,IC50,CAL-120,> 10 µM
same,IC50,CAL-27,> 10 µM
same,IC50,CAL-62,> 10 µM
same,IC50,UACC-62,> 10 µM
same,IC50,VMRC-RCZ,> 10 µM
same,IC50,CHL-1,> 10 µM
